What was measured:
[1] = system: NCI-60 cell lines; experiment: NCI-60 cell line panel screening; type: cell-based, human; conditions: vs Bendamustine
[2] = system: Human NSCLC A549 cells; conditions: 60 mg/kg i.v. day 1, 4, 8, 11, 18, 25; 10% HPβCD formulation; balb/c nu/nu mice

Row | SMILES | fold more potent than Bendamustine in the NCI-60 cell lines [1] | Body weight [2] | T/C (%) [2] | Tumor volume (mm3) [2] | Tumor weight [2]
1 | Cn1c(CCCCCCC(=O)NO)nc2cc(N(CCCl)CCCl)ccc21 [NL-101] | 25-100 fold | 27.6 g | 37.7% | 772.7 mm3 | 0.88 g
2 | Cn1c(CCCC(=O)O)nc2cc(N(CCCl)CCCl)ccc21 [Bendamustine, reference compound] | – | 28.6 g | 71.9% | 1716.5 mm3 | 1.97 g

From US9376395B2 (priority 2011, dated 2016)
